Results from publication PMC12238723, “Phase I Clinical Trial of CVL218, a Novel PARP1/2 Inhibitor, in Patients with Advanced Solid Tumors” (MedComm, 2025).

System: patients with advanced solid tumors
Assay: Treatment-related adverse events (CTCAE v5.0), phase I dose escalation
Assay type: in vivo
Text: This study was a single‐arm, dose‐escalation phase I trial conducted in Sun Yat‐sen University Cancer Center in China. This study assessed CVL218 in patients with histologically or cytologically confirmed advanced solid tumors who were in PD after standard therapeutic regimens or lacked standard treatment options. Inclusion criteria included: age 18–75 years; with at least one measurable and evaluable target lesion per Response Evaluation Criteria in Solid Tumors 1.1 (RECIST 1.1); ECOG performance status of 0 or 1; adequate hematological, renal, cardiac, and hepatic functions and a life expectancy ≥12 weeks. Key exclusion criteria included prior usage of PARP inhibitors; allergic to the research drug or its components; with active, unstable systemic diseases or active, uncontrolled infection; a history of other malignancies within 5 years, and pregnant or lactating women.
CVL218 was administered orally, and this dose‐escalation trial included nine dose levels: 100 mg QD (50 mg BID), 200 mg QD (100 mg BID), 400 mg QD (200 mg BID), 700 mg QD (350 mg BID), 1000 mg QD (500 mg BID), 1200 mg QD (600 mg BID), 1400 mg QD (700 mg BID), 1700 mg QD (850 mg BID), and 2000 mg QD (1000 mg BID). Patients enrolled in the study received a single oral dose on the first day, followed by continuous multiple dosing (twice a day taking 12 h apart) after 72 h, with the treatment cycle lasting 4 weeks. The period during which patients received a single dose is designated as cycle 0 (C0), lasting 72 h. After this period, patients begin multiple dosing, referred to as cycle 1 (C1). An initial accelerated titration design was employed for the three lowest dose groups, and the “3+3” design was applied starting with the 300 mg BID cohort.
The primary objectives were to assess safety and tolerability as well as to determine the MTD, DLT, and dose recommended for further study. DLT was defined as any of the following events occurring during cycle 0 (including 72 h wash‐out period after a single dose) and cycle 1 per Common Terminology Criteria for Adverse Events (CTCAE) version 5.0: grade 4 anemia; grade 4 neutropenia; grade 3 neutropenia with fever ≥38.5°C; grade 4 thrombocytopenia; grade 3 thrombocytopenia associated with bleeding; grade ≥2 neurotoxicity; any other grade ≥3 nonhematological toxicities (excluding alopecia). The secondary objectives were to assess the PK and preliminary efficacy of CVL218.
Subjects who received at least one dose of CVL218 with postadministration safety records were included in safety analysis set. Subjects who received at least one dose of CVL218 with at least one evaluable PK parameter were included in PK analysis set. Per‐protocol set were used for efficacy analysis. Descriptive statistics of safety were presented per CTCAE v5.0. The PK parameters T max and T 1/2 were shown as the median (min, max) and mean ± SD, respectively. A two‐sided p < 0.05 was considered to indicate statistical significance. Statistical analysis was performed by using GraphPad prism 8.0.2 and R‐4.3.3.

## CNCc1ccc(-c2cc3cc(F)cc(C(N)=O)c3o2)cc1.Cl [CVL218]
600 mg BID, ≥G3
  Abdominal distension: 0 n (%)
  Abdominal pain: 0 n (%)
  Abdominal pain upper: 0 n (%)
  Amylase increased: 0 n (%)
  Anemia: 0 n (%)
  Any AE related to study drug: 1 (25.0) n (%)
  Asthenia: 0 n (%)
  Blood system disorders: 0 n (%)
  Blood triglycerides increased: 0 n (%)
  Cardiac disorders: 0 n (%)
  Chest discomfort: 0 n (%)
  Constipation: 0 n (%)
  Decreased appetite: 0 n (%)
  Diarrhea: 0 n (%)
  Dizziness: 0 n (%)
  Erectile dysfunction: 0 n (%)
  Gastrointestinal disorders: 0 n (%)
  General disorders: 0 n (%)
  Gingival bleeding: 0 n (%)
  Granulocyte count increased: 0 n (%)
  Headache: 0 n (%)
  Hypoalbuminemia: 0 n (%)
  Infusion site pain: 0 n (%)
  Limb discomfort: 0 n (%)
  Lipase increased: 0 n (%)
  Metabolic disorders: 0 n (%)
  Musculoskeletal discomfort: 0 n (%)
  Musculoskeletal disorders: 0 n (%)
  Nausea: 0 n (%)
  Nervous system disorders: 0 n (%)
  Neutrophil count decreased: 0 n (%)
  Neutrophil count increased: 0 n (%)
  Palpitations: 0 n (%)
  Protein urine present: 0 n (%)
  Proteinuria: 0 n (%)
  Rash: 0 n (%)
  Renal & urinary disorders: 0 n (%)
  Renal failure: 0 n (%)
  Reproductive disorders: 0 n (%)
  Skin disorders: 0 n (%)
  Urinary occult blood positive: 0 n (%)
  Vomiting: 0 n (%)
  WBC count decreased: 0 n (%)
  WBC count increased: 0 n (%)
700 mg BID, ALL
  Infusion site pain: 0 n (%)
  WBC count increased: 0 n (%)
700 mg BID, ≥G3
  ALT increased: 0 n (%)
  AST increased: 0 n (%)
  Abdominal distension: 0 n (%)
  Abdominal pain: 0 n (%)
  Abdominal pain upper: 0 n (%)
  Amylase increased: 0 n (%)
  Anemia: 0 n (%)
  Any AE related to study drug: 0 n (%)
  Asthenia: 0 n (%)
  Blood creatinine increased: 0 n (%)
  Blood system disorders: 0 n (%)
  Blood triglycerides increased: 0 n (%)
  Blood urea increased: 0 n (%)
  Cardiac disorders: 0 n (%)
  Chest discomfort: 0 n (%)
  Constipation: 0 n (%)
  Decreased appetite: 0 n (%)
  Diarrhea: 0 n (%)
  Dizziness: 0 n (%)
  Erectile dysfunction: 0 n (%)
  Gastrointestinal disorders: 0 n (%)
  General disorders: 0 n (%)
  Gingival bleeding: 0 n (%)
  Granulocyte count increased: 0 n (%)
  Headache: 0 n (%)
  Hypoalbuminemia: 0 n (%)
  Infusion site pain: 0 n (%)
  Laboratory test disorders: 0 n (%)
  Limb discomfort: 0 n (%)
  Lipase increased: 0 n (%)
  Metabolic disorders: 0 n (%)
  Musculoskeletal discomfort: 0 n (%)
  Musculoskeletal disorders: 0 n (%)
  Nausea: 0 n (%)
  Nervous system disorders: 0 n (%)
  Neutrophil count decreased: 0 n (%)
  Neutrophil count increased: 0 n (%)
  Palpitations: 0 n (%)
  Protein urine present: 0 n (%)
  Proteinuria: 0 n (%)
  Rash: 0 n (%)
  Renal & urinary disorders: 0 n (%)
  Renal failure: 0 n (%)
  Reproductive disorders: 0 n (%)
  Skin disorders: 0 n (%)
  Urinary occult blood positive: 0 n (%)
  Vomiting: 0 n (%)
  WBC count decreased: 0 n (%)
  WBC count increased: 0 n (%)
850 mg BID, ALL
  Infusion site pain: 0 n (%)
  WBC count increased: 1 (20.0) n (%)
850 mg BID, ≥G3
  ALT increased: 0 n (%)
  AST increased: 0 n (%)
  Abdominal distension: 0 n (%)
  Abdominal pain: 1 (20) n (%)
  Abdominal pain upper: 0 n (%)
  Amylase increased: 0 n (%)
  Anemia: 0 n (%)
  Any AE related to study drug: 2 (40.0) n (%)
  Asthenia: 0 n (%)
  Blood creatinine increased: 2 (40.0) n (%)
  Blood system disorders: 0 n (%)
  Blood triglycerides increased: 0 n (%)
  Blood urea increased: 0 n (%)
  Cardiac disorders: 0 n (%)
  Chest discomfort: 0 n (%)
  Constipation: 0 n (%)
  Decreased appetite: 0 n (%)
  Diarrhea: 0 n (%)
  Dizziness: 0 n (%)
  Erectile dysfunction: 0 n (%)
  Gastrointestinal disorders: 1 (20) n (%)
  General disorders: 0 n (%)
  Gingival bleeding: 0 n (%)
  Granulocyte count increased: 0 n (%)
  Headache: 0 n (%)
  Hypoalbuminemia: 0 n (%)
  Infusion site pain: 0 n (%)
  Laboratory test disorders: 2 (40.0) n (%)
  Limb discomfort: 0 n (%)
  Lipase increased: 0 n (%)
  Metabolic disorders: 0 n (%)
